Measurements taken from ChEMBL document CHEMBL4483862, “Open-source discovery of chemical leads for next-generation chemoprotective antimalarials” (2018).

Test system: Plasmodium berghei
Assay: Luciferase/luciferin-expressing antifolate-resistant parasites were used to infect a culture of HepG2 cells that were pre-incubated with compounds. Infected hepatocytes emit light due to the luciferase reaction. Assay results are presented as the percent inhibition of light emission compared to control. […]
Assay type: functional
Conditions: sporozoite; for IC90: read-out: LUCIFERASE INFECTION ASSAY - IC90
[1] = read-out: LUCIFERASE INFECTION ASSAY - IC50

| SMILES | IC50 [1] [µM] | IC90 [µM] | other results |
| --- | --- | --- | --- |
| CCCCNS(=O)(=O)c1ccc2nc(SCc3cccc(OC)c3)[nH]c2c1 | > 10 | > 10 |  |
| CC(Sc1nnc(-c2ccc(C(C)(C)C)cc2)o1)C(=O)Nc1ncc(Cl)cc1Cl (configuration not stated) |  | 3.61 | IC50 (HEPG2TOX_HILL_SLOPE 7.53, HEPG2TOX_R_SQUARED 0.526, PBLUC_HILL_SLOPE 15.5, PBLUC_R_SQUARED 0.267, read-out: LUCIFERASE INFECTION ASSAY - IC50): 3.13 µM |
| O=C(Nc1nc(-c2ccc3c(c2)CCC3)cs1)c1ccc(CSc2nnc[nH]2)cc1 |  | > 10 | IC50 (HEPG2TOX_HILL_SLOPE 14.2, HEPG2TOX_R_SQUARED 0.936, PBLUC_HILL_SLOPE 3.67, PBLUC_R_SQUARED 0.0328, read-out: LUCIFERASE INFECTION ASSAY - IC50): 6.58 µM |
| O=C1NC2=C(C(=O)N(CCC3=CCCCC3)C2)C(c2ccc(F)cc2)N1 (configuration not stated) | > 10 | > 10 |  |
| Cc1ccc(NC(=O)Cn2ccccc2=O)cc1S(=O)(=O)N1CCCCC1 |  | > 10 | IC50 (PBLUC_HILL_SLOPE 1.99, PBLUC_R_SQUARED 0.304, read-out: LUCIFERASE INFECTION ASSAY - IC50): 5.37 µM |
| C=CCn1c(COc2ccc(CC)cc2)nnc1SCC(=O)/C(C#N)=C(\C)N |  | > 10 | IC50 (HEPG2TOX_HILL_SLOPE 17.4, HEPG2TOX_R_SQUARED 0.832, PBLUC_HILL_SLOPE 1.76, PBLUC_R_SQUARED 0.574, read-out: LUCIFERASE INFECTION ASSAY - IC50): 6.67 µM |
| CCOc1cc2c(cc1NC(=O)CCCCCn1c(=S)[nH]c3ccccc3c1=O)OC(C)C2 (configuration not stated) | > 10 | > 10 |  |
| COc1ccc(NS(=O)(=O)c2cccc(C(=O)Nc3ncc(C)s3)c2)cc1Br |  | 4.59 | IC50 (HEPG2TOX_HILL_SLOPE 1.95, HEPG2TOX_R_SQUARED 0.754, PBLUC_HILL_SLOPE 9.08, 8.50, PBLUC_R_SQUARED 0.373, 0.408, read-out: LUCIFERASE INFECTION ASSAY - IC50): 5.79 µM |
| CCCCn1c(SCC(=O)Nc2cc(C(F)(F)F)ccc2N2CCOCC2)nc2ccccc21 | > 10 | > 10 |  |
| Cc1cccc(CNc2nc3cnc(-c4cccc(Oc5ccccc5)c4)cc3n2C)c1 |  | 3.88 | IC50 (FFLUC_HILL_SLOPE 2.46, FFLUC_R_SQUARED 0.608, HEPG2TOX_HILL_SLOPE 16, HEPG2TOX_R_SQUARED 0.341, PBLUC_HILL_SLOPE 8.58, PBLUC_R_SQUARED 0.684, read-out: LUCIFERASE INFECTION ASSAY - IC50): 3 µM |
| COc1ccc(-c2ccc3nnc(-c4cscn4)n3c2)c(C)c1 | > 10 | > 10 |  |
| CCCN1CCCC(NC(=S)Nc2ccc(Br)cc2C)C1 (configuration not stated) | > 8.91 | > 8.91 |  |
| Cc1ccc(NCC(=O)c2ccc(-n3nncc3-c3ccccc3)cc2)cc1 | > 10 | > 10 |  |
| Cc1cccc(OCc2nnnn2-c2ccc(Br)cc2)c1 | > 9.56 | > 9.56 |  |
| Cc1ccccc1N1C(=O)c2ccccc2C(Cc2ccc(C#N)cc2)(Cc2ccc(C#N)cc2)C1=O |  | > 10 | IC50 (FFLUC_HILL_SLOPE 16.6, FFLUC_R_SQUARED 0.0411, PBLUC_HILL_SLOPE 0.772, PBLUC_R_SQUARED 0.177, read-out: LUCIFERASE INFECTION ASSAY - IC50): > 10 µM |
| CC(Oc1ccc(Cl)cc1)C(=O)Nc1sccc1C(N)=O (configuration not stated) |  | 4.27 | IC50 (PBLUC_HILL_SLOPE 15.8, PBLUC_R_SQUARED 0.448, read-out: LUCIFERASE INFECTION ASSAY - IC50): 3.72 µM |
| CN(c1ccccc1)S(=O)(=O)c1ccc(NC(=O)c2cccs2)cc1 |  | 8.27 | IC50 (PBLUC_HILL_SLOPE 1.98, PBLUC_R_SQUARED 0.132, read-out: LUCIFERASE INFECTION ASSAY - IC50): 2.73 µM |
| Clc1ccc2c(NC3CCN(Cc4ccccc4)CC3)ccnc2c1 |  | 8.05 | IC50 (HEPG2TOX_HILL_SLOPE 11.4, HEPG2TOX_R_SQUARED 0.805, PBLUC_HILL_SLOPE 13.2, 4.09, PBLUC_R_SQUARED 0.263, 0.797, read-out: LUCIFERASE INFECTION ASSAY - IC50): 5.96 µM |
| O=C(Cc1cccs1)Nc1ccc(Cl)c(C(F)(F)F)c1 | > 10 | > 10 |  |
| COCCCNC(=S)Nc1cccc2ccccc12 |  | > 12 | IC50 (HEPG2TOX_HILL_SLOPE 10.4, HEPG2TOX_R_SQUARED 0.777, PBLUC_HILL_SLOPE 18.1, PBLUC_R_SQUARED 0.604, read-out: LUCIFERASE INFECTION ASSAY - IC50): 11.8 µM |
| COc1cc(C)c(Nc2cc(-c3ccc(N(C)C)cc3)ncn2)cc1OC |  | 0.48 | IC50 (HEPG2TOX_HILL_SLOPE 1.1, HEPG2TOX_R_SQUARED 0.88, PBLUC_HILL_SLOPE 3.68, PBLUC_R_SQUARED 0.773, read-out: LUCIFERASE INFECTION ASSAY - IC50): 0.264 µM |
| O=C(COc1cc(N2CCCC2=O)ccc1[N+](=O)[O-])NCc1ccco1 | > 10 | > 10 |  |
| Cc1c(C)n(Cc2ccccc2)c2ncn3nc(-c4ccccn4)nc3c12 | > 9.31 | > 9.31 |  |

| SMILES | IC50 [1] [µM] | IC90 [µM] | other results |
| --- | --- | --- | --- |
| Cc1c(OCc2ccc([N+](=O)[O-])cc2)ccc2c1OC(C)(C)C=C2 | 0.667 | 6.1 |  |
| N#Cc1cccc(NC(=O)c2cc(-c3cccnc3)nc3c2cnn3Cc2ccccc2Cl)c1 | > 10 | > 10 |  |
| O=[N+]([O-])c1cc(C(F)(F)F)ccc1N1CCCN(C(=S)Nc2cccc(C(F)(F)F)c2)CC1 |  | > 6.7 | IC50 (FFLUC_HILL_SLOPE 18.8, FFLUC_R_SQUARED 0.397, HEPG2TOX_HILL_SLOPE 0.504, HEPG2TOX_R_SQUARED 0.366, read-out: LUCIFERASE INFECTION ASSAY - IC50): > 6.7 µM |
| COc1ccc2cc(CN(C)C(=O)c3cnn(Cc4ccccc4)c3)ccc2c1 | 2.85 | > 10 |  |
| Cc1cc(C)c(S(=O)(=O)N2CCC(C(=O)Nc3nnc(C)o3)CC2)c(C)c1 | > 10 | > 10 |  |
| NC(CCc1ccccc1)c1csc(NC(=O)Nc2ccccc2)n1 (configuration not stated) |  | > 9.36 | IC50 (PBLUC_HILL_SLOPE 42.7, PBLUC_R_SQUARED 0.194, read-out: LUCIFERASE INFECTION ASSAY - IC50): 9.14 µM |
| Cc1ccc(NC(=O)c2[nH]nc3c2CCCC3)cc1Cl |  | > 2 | IC50 (PBLUC_HILL_SLOPE 0.552, PBLUC_R_SQUARED 0.432, read-out: LUCIFERASE INFECTION ASSAY - IC50): 0.0735 µM |
| COc1ccc(O)c(C(=O)c2c[nH]c(C(=O)N3CCCC3)c2)c1 |  | > 10 | IC50 (HEPG2TOX_HILL_SLOPE 3.52, HEPG2TOX_R_SQUARED 0.659, PBLUC_HILL_SLOPE 0.979, PBLUC_R_SQUARED 0.275, read-out: LUCIFERASE INFECTION ASSAY - IC50): > 10 µM |
| O=C(CCc1ccc(O)cc1)NNC(=S)Nc1ccc(Cl)c(Cl)c1 |  | > 8.59 | IC50 (PBLUC_HILL_SLOPE 3.89, PBLUC_R_SQUARED 0.475, read-out: LUCIFERASE INFECTION ASSAY - IC50): 5.88 µM |
| Cc1cc2nnc(-c3ccc(C(F)(F)F)cc3)n2[nH]1 |  | > 12.4 | IC50 (FFLUC_HILL_SLOPE 9.36, FFLUC_R_SQUARED 0.07, PBLUC_HILL_SLOPE 1.33, PBLUC_R_SQUARED 0.805, read-out: LUCIFERASE INFECTION ASSAY - IC50): 3.1 µM |
| O=C(C1CN(C(=O)CCCc2c[nH]c3ccccc23)c2ccccc2O1)N1CCCCC1 (configuration not stated) | > 10 | > 10 |  |
| CC(=O)Nc1cccc(-c2cn3c(-c4cccs4)cnc3cn2)c1 |  | > 9.87 | IC50 (HEPG2TOX_HILL_SLOPE 3.98, HEPG2TOX_R_SQUARED 0.532, PBLUC_HILL_SLOPE 3.16, PBLUC_R_SQUARED 0.221, read-out: LUCIFERASE INFECTION ASSAY - IC50): 5.11 µM |
| CSc1ccc(-c2cn3c(-c4ccc(C(=O)NC5CC5)cc4)cnc3cn2)cc1 |  | > 8.24 | IC50 (PBLUC_HILL_SLOPE 11.7, PBLUC_R_SQUARED 0.658, read-out: LUCIFERASE INFECTION ASSAY - IC50): 7.27 µM |
| C=CCn1c(N)c(-c2nc3ccccc3[nH]2)c2nc3ccccc3nc21 |  | > 9.69 | IC50 (PBLUC_HILL_SLOPE 3.6, PBLUC_R_SQUARED 0.636, read-out: LUCIFERASE INFECTION ASSAY - IC50): 5.99 µM |
| COc1cccc(-c2cn3c(-c4ccc5c(ccn5C)c4)cnc3cn2)c1F |  | 0.145 | IC50 (HEPG2TOX_HILL_SLOPE 1.41, HEPG2TOX_R_SQUARED 0.854, PBLUC_HILL_SLOPE 2.39, PBLUC_R_SQUARED 0.955, read-out: LUCIFERASE INFECTION ASSAY - IC50): 0.0579 µM |
| CCCCNC(=O)c1c(NC(=O)c2cccc(F)c2F)nc2ccccn12 | > 8.86 | > 8.86 |  |
| CCCNC(=O)c1c(NC(=O)c2ccc(C)cc2)nc2ccccn12 |  | 9.6 | IC50 (PBLUC_HILL_SLOPE 5.82, PBLUC_R_SQUARED 0.26, read-out: LUCIFERASE INFECTION ASSAY - IC50): 6.58 µM |
| COC(=O)c1c(NC(=O)CN(C)Cc2ccc(OC(F)F)c(OC)c2)sc(C)c1C | > 10 | > 10 |  |
| Cc1nn(-c2ccccc2)c(C)c1-c1nc(-c2ccccc2)no1 |  | 5.81 | IC50 (FFLUC_HILL_SLOPE 123, FFLUC_R_SQUARED 0.665, PBLUC_HILL_SLOPE 0.902, PBLUC_R_SQUARED 0.808, read-out: LUCIFERASE INFECTION ASSAY - IC50): 0.508 µM |
| COc1ccccc1NC(=O)Nc1nc(C(N)CCc2ccccc2)cs1 (configuration not stated) |  | > 8.63 | IC50 (PBLUC_HILL_SLOPE 2.77, PBLUC_R_SQUARED 0.721, read-out: LUCIFERASE INFECTION ASSAY - IC50): 5.07 µM |
| O=C(NC1CC1)c1ccc(CN(C2CC2)S(=O)(=O)c2ccccc2F)cc1 | 1.29 | 1.51 |  |
| Clc1ccc2c(Sc3nnc4ccccn34)ccnc2c1 | > 10 | > 10 |  |
| CCOC(=O)c1c(NC(=O)C(C)N(C)CC(=O)Nc2cc(C)ccc2C)sc2c1CCC(C)C2 (configuration not stated) | > 10 | > 10 |  |
